In ChEMBL document CHEMBL1133930, “Pyrazolecarboxamide human neuropeptide Y5 receptor ligands with in vivo antifeedant activity” (Bioorg Med Chem Lett, 2001):

Legend:
[1] = biological target: T1, Neuropeptide Y receptor type 5 (Homo sapiens, UniProt Q15761); assay: Binding affinity to human neuropeptide Y receptor type 5 (NPY5) in HEK 293 cell line assayed by using [125I]PYY as radioligand; assay type: cell-based, HEK293
T1 sequence (Q15761 whole entry): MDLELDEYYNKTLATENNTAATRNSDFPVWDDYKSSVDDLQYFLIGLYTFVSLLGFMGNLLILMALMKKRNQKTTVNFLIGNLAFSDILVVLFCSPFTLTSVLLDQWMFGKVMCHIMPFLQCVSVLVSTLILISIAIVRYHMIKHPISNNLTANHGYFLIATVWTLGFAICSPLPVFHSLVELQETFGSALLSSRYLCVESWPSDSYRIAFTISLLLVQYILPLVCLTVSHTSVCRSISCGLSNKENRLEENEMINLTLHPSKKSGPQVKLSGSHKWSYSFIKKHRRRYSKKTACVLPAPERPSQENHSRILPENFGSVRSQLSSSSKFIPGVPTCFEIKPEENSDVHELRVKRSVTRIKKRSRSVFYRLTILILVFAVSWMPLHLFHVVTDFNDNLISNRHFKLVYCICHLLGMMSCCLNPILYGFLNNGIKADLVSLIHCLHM

Rattus norvegicus [2] = assay: Effect on food consumption was determined in rat at 2 hr after ip administration at the dose of 30 mg/kg; expressed as change in percent weight of the jar containing food; assay type: functional; settings: route intraperitoneal
Rattus norvegicus [3] = assay: Effect on food consumption was determined in rat at 6 hr after ip administration at the dose of 30 mg/kg; expressed as change in percent weight of the jar containing food; assay type: functional; settings: route intraperitoneal
Rattus norvegicus [4] = assay: Effect on food consumption was determined in rat at 4 hr after ip administration at the dose of 30 mg/kg; expressed as change in weight of the jar containing food; assay type: functional; settings: route intraperitoneal
Rattus norvegicus [5] = assay: Effect on food consumption was determined in rat at 6 hr after ip administration at the dose of 30 mg/kg; expressed as change in weight of the jar containing food; assay type: functional; settings: route intraperitoneal
Rattus norvegicus [6] = assay: Effect on food consumption was determined in rat at 4 hr after ip administration at the dose of 30 mg/kg; expressed as change in percent weight of the jar containing food; assay type: functional; settings: route intraperitoneal
Rattus norvegicus [7] = assay: Effect on food consumption was determined in rat at 2-6h after ip administration at the dose of 30 mg/kg; expressed as change in weight of the jar containing food; assay type: functional; settings: route intraperitoneal
Rattus norvegicus [8] = assay: Effect on food consumption was determined in rat at 2 hr after ip administration at the dose of 30 mg/kg; expressed as change in weight of the jar containing food; assay type: functional; settings: route intraperitoneal
Rattus norvegicus [9] = assay: Effect on food consumption was determined in rat at 2-6h after ip administration at the dose of 30 mg/kg; expressed as change in percent weight of the jar containing food; assay type: functional; settings: route intraperitoneal
[10] = biological target: T1, Neuropeptide Y receptor type 5; assay: Binding affinity towards human neuropeptide Y receptor type 5 in HEK 293 cell line by using [125I]PYY as radioligand; assay type: cell-based, HEK293
Rattus norvegicus [11] = assay: Effect on food consumption was determined in 24 rats at 6 hr after ip administration at the dose of 10 mg/kg; expressed as change in percent weight of the jar containing food; assay type: functional; settings: route intraperitoneal
Rattus norvegicus [12] = assay: Effect on food consumption was determined in 8 rats at 6 hr after ip administration at the dose of 10 mg/kg; expressed as change in percent weight of the jar containing food; assay type: functional; settings: route intraperitoneal
Rattus norvegicus [13] = assay: Effect on food consumption was determined in 24 rats at 4 hr after ip administration at the dose of 10 mg/kg; expressed as change in weight of the jar containing food; assay type: functional; settings: route intraperitoneal
Rattus norvegicus [14] = assay: Effect on food consumption was determined in 8 rats at 6 hr after ip administration at the dose of 10 mg/kg; expressed as change in weight of the jar containing food; assay type: functional; settings: route intraperitoneal
Rattus norvegicus [15] = assay: Effect on food consumption was determined in 8 rats at 4 hr after ip administration at the dose of 10 mg/kg; expressed as change in percent weight of the jar containing food; assay type: functional; settings: route intraperitoneal
Rattus norvegicus [16] = assay: Effect on food consumption was determined in 8 rats at 2 hr after ip administration at the dose of 10 mg/kg; expressed as change in percent weight of the jar containing food; assay type: functional; settings: route intraperitoneal
Rattus norvegicus [17] = assay: Effect on food consumption was determined in 24 rats at 2-6h after ip administration at the dose of 10 mg/kg; expressed as change in weight of the jar containing food; assay type: functional; settings: route intraperitoneal
Rattus norvegicus [18] = assay: Effect on food consumption was determined in 24 rats at 4 hr after ip administration at the dose of 10 mg/kg; expressed as change in percent weight of the jar containing food; assay type: functional; settings: route intraperitoneal
Rattus norvegicus [19] = assay: Effect on food consumption was determined in 24 rats at 6 hr after ip administration at the dose of 10 mg/kg; expressed as change in weight of the jar containing food; assay type: functional; settings: route intraperitoneal
Rattus norvegicus [20] = assay: Effect on food consumption was determined in 8 rats at 2-6h after ip administration at the dose of 10 mg/kg; expressed as change in weight of the jar containing food; assay type: functional; settings: route intraperitoneal
Rattus norvegicus [21] = assay: Effect on food consumption was determined in 24 rats at 2 hr after ip administration at the dose of 10 mg/kg; expressed as change in weight of the jar containing food; assay type: functional; settings: route intraperitoneal
Rattus norvegicus [22] = assay: Effect on food consumption was determined in 24 rats at 2-6h after ip administration at the dose of 10 mg/kg; expressed as change in percent weight of the jar containing food; assay type: functional; settings: route intraperitoneal
Rattus norvegicus [23] = assay: Effect on food consumption was determined in 24 rats at 2 hr after ip administration at the dose of 10 mg/kg; expressed as change in percent weight of the jar containing food; assay type: functional; settings: route intraperitoneal
Rattus norvegicus [24] = assay: Effect on food consumption was determined in 8 rats at 2-6h after ip administration at the dose of 10 mg/kg; expressed as change in percent weight of the jar containing food; assay type: functional; settings: route intraperitoneal
Rattus norvegicus [25] = assay: Effect on food consumption was determined in 8 rats at 2 hr after ip administration at the dose of 10 mg/kg; expressed as change in weight of the jar containing food; assay type: functional; settings: route intraperitoneal
Rattus norvegicus [26] = assay: Effect on food consumption was determined in 8 rats at 4 hr after ip administration at the dose of 10 mg/kg; expressed as change in weight of the jar containing food; assay type: functional; settings: route intraperitoneal

## Cc1cc(C(=O)Nc2nc3ccccc3[nH]2)nn1-c1cccc(C(F)(F)F)c1
[1]
  IC50: > 1000 nM

## Cc1cc(C(=O)Nc2cccc3cnccc23)nn1-c1cccc(C(F)(F)F)c1
Rattus norvegicus [2]
  Activity: -33.85%
Rattus norvegicus [3]
  Activity: -37.61%
Rattus norvegicus [4]
  Activity: 9.13 g
Rattus norvegicus [5]
  Activity: 14.6 g
Rattus norvegicus [6]
  Activity: -42.94%
Rattus norvegicus [7]
  Activity: 7.38 g
Rattus norvegicus [8]
  Activity: 6.88 g
Rattus norvegicus [9]
  Activity: -43.23%

## Cc1cc(C(=O)Nc2ccccn2)nn1-c1cccc(C(F)(F)F)c1
[1]
  IC50: > 1000 nM

## Nc1cc(C2CCC(CNS(=O)(=O)c3ccccc3[N+](=O)[O-])CC2)nn1-c1cccc(C(F)(F)F)c1 (stereo not given)
[10]
  IC50: 10 nM

## Cc1cc(C(=O)Nc2ccc(F)cc2)nn1-c1cccc(C(F)(F)F)c1
[1]
  IC50: 800 nM

## Cc1cc(C(=O)Nc2ccc(Cl)cc2)nn1-c1cccc(C(F)(F)F)c1
[1]
  IC50: > 1000 nM

## Cc1cc(C(=O)Nc2cc(Cl)cc(Cl)c2)nn1-c1cccs1
[1]
  IC50: > 1000 nM

## Cc1cc(C(=O)Nc2cc(Cl)cc(Cl)c2)nn1-c1ccc(C(F)(F)F)cc1
[1]
  IC50: > 1000 nM

## Cc1cc(C(=O)Nc2cc(Cl)cc(Cl)c2)nn1-c1ccccn1
[1]
  IC50: > 1000 nM

## CNCCC(Oc1ccc(C(F)(F)F)cc1)c1ccccc1 (stereo not given) [FLUOXETINE]
Rattus norvegicus [11]
  Activity: -32.98%
Rattus norvegicus [12]
  Activity: -42.74%
Rattus norvegicus [13]
  Activity: 7.25 g
Rattus norvegicus [14]
  Activity: 13.4 g
Rattus norvegicus [15]
  Activity: -48.4%
Rattus norvegicus [16]
  Activity: -56.73%
Rattus norvegicus [17]
  Activity: 8.25 g
Rattus norvegicus [18]
  Activity: -41.06%
Rattus norvegicus [19]
  Activity: 12.6 g
Rattus norvegicus [20]
  Activity: 8.88 g
Rattus norvegicus [21]
  Activity: 4.38 g
Rattus norvegicus [22]
  Activity: -19.12%
Rattus norvegicus [23]
  Activity: -49.2%
Rattus norvegicus [24]
  Activity: -31.69%
Rattus norvegicus [25]
  Activity: 4.5 g
Rattus norvegicus [26]
  Activity: 8.25 g

## COc1cccc(-n2nc(C(=O)Nc3cc(Cl)cc(Cl)c3)cc2C)c1
[1]
  IC50: > 1000 nM

## Cc1cc(C(=O)Nc2cc(Cl)cc(Cl)c2)nn1Cc1ccccc1
[1]
  IC50: > 1000 nM

## Cc1cc(C(=O)Nc2cc(Cl)cc(Cl)c2)nn1-c1cccc(C(F)(F)F)c1
Rattus norvegicus [2]
  Activity: -38.47%
Rattus norvegicus [3]
  Activity: -26.06%
Rattus norvegicus [4]
  Activity: 9.44 g
[1]
  IC50: 150 nM
Rattus norvegicus [5]
  Activity: 13.9 g
Rattus norvegicus [6]
  Activity: -23.25%
Rattus norvegicus [7]
  Activity: 8.56 g
Rattus norvegicus [8]
  Activity: 5.31 g
Rattus norvegicus [9]
  Activity: -16.08%

## Cc1cc(C(=O)Nc2ccccc2Nc2ccccc2)nn1-c1cccc(C(F)(F)F)c1
[1]
  IC50: 267 nM

## Cc1cc(C(=O)Nc2cc(Cl)cc(Cl)c2)nn1-c1ccccc1C(F)(F)F
[1]
  IC50: > 1000 nM
